We go through 28 compounds from patent US10570121B2, “Substituted dihydroisoquinolinone compounds” (priority 2014, dated 2020).

Holding throughout (format): biochemical
In assay [1] the target is T1, WT EZH2 (Homo sapiens (Human), UniProt Q15910). Briefly: WT EZH2 nucleosome assay. As to conditions: PRC2 4-protein complex 4 nM, 1.5 μM SAM, HeLa oligonucleosomes; for IC50: WT EZH2 Nucleosome assay IC50 (μM); for pIC50: read-out: WT EZH2 Nucleosome assay IC50. As for the experimental part:
The genes for EZH2, EED, SUZ12, and RBBP4 proteins were cloned into pBacPAK9 vectors (Clontech). RBBP4 was FLAG tagged on the N-terminal end. The baculovirus expressions of these proteins were used to co-infect SF9 insect cells. Insect cell pellets were lysed in a buffer containing 25 mM Tris pH8.0, 300 mM NaCl, 0.5 mM TCEP, complete EDTA-free protease inhibitor (Roche), 0.1% NP-40. The supernatant from the lysate was incubated with FLAG® M2 antibody resin (Sigma). The resin was washed on the chromatography column and eluted with 0.2 mg/ml FLAG peptide. The elute was incubated with omnicleave nucleases (Epicentre Technologies) at 4° C. overnight, then concentrated and loaded onto a Superdex 200 (GE Healthcare) column. The Superdex 200 column was eluted with 25 mM Tris pH8.0, 150 mM NaCl, 0.5 mM TCEP. Fractions containing the PRC2 complex were pooled.
A. Compound preparation • 1.
B. Reagent preparation • 1. […] Dilute TCA to 20% in DI water
C. Enzyme reaction • 1. […] Some compounds were tested under high SAM conditions.
D. Data analysis • 1. IC50 values were determined by fitting the data to a 4-parameter IC50 equation using proprietary curve fitting software. • 2. For compounds tested under high SAM conditions, Ki^app values were obtained by fitting the dose response curve to a model for competitive inhibition using proprietary curve fitting software. Preparation of HeLa Oligonucleosomes: Reagents • Cell Pellet: 15 L HeLa S3 (Accelgen)+6 L HeLa S3 (in house) • Mnase (Worthington Biochemicals) Equipment • SW-28 Rotor • Dounce Homogenizer/B Pestle Buffers • Lysis: 20 mM Hepes pH 7.5, 0.25M Sucrose, 3 mM MgCl2, 0.5% Nonidet P-40, 0.5 mM TCEP, 1 Roche Protease Tablet • B: 20 mM Hepes pH7.5, 3 mM MgCl2, 0.5 mM EDTA, 0.5 mM TCEP, 1 Roche Protease Tablet • MSB: 20 mM Hepes pH7.5, 0.4 M NaCl, 1 mM EDTA, 5% v/v Glycerol, 0.5 mM TCEP, 0.2 mM PMSF • LSB: 20 mM Hepes pH7.5, 0.1M NaCl, 1 mM EDTA, 0.5 mM TCEP, 0.2 mM PMSF • NG: 20 mM Hepes pH7.5, 1 mM EDTA, 0.4 m NaCl, 0.2 mM PMSF, 0.5 mM TCEP • Storage: 20 mM Hepes pH7.5, 1 mM EDTA, 10% Glycerol, 0.2 mM PMSF, 0.5 mM TCEP Protocol

Another assay addresses EZH2 Mutant Y641N (Homo sapiens (Human), UniProt Q15910, Y641N). Briefly: EZH2 Mutant Y641N nucleosome assay. The conditions noted are these: PRC2 4-protein complex 6 nM, 1.5 μM SAM, HeLa oligonucleosomes; for IC50: EZH2 Mutant Y641N Nucleosome assay IC50 (μM); for pIC50: read-out: EZH2 Mutant Y641N Nucleosome assay IC50.
Assay [2] deals with T1, WT EZH2. Briefly: WT EZH2 nucleosome assay (10X SAM, high SAM conditions). The conditions noted are these: 15 uM SAM, Ki app from competitive inhibition fit, read-out: WT EZH2 Nucleosome assay (10X SAM) Ki.

Structures are written as SMILES. pIC50, pKi: −log10 of the molar value. Read-outs that look alike come from different tables or passages of the source.

T1 sequence (Q15910 whole entry, looked up): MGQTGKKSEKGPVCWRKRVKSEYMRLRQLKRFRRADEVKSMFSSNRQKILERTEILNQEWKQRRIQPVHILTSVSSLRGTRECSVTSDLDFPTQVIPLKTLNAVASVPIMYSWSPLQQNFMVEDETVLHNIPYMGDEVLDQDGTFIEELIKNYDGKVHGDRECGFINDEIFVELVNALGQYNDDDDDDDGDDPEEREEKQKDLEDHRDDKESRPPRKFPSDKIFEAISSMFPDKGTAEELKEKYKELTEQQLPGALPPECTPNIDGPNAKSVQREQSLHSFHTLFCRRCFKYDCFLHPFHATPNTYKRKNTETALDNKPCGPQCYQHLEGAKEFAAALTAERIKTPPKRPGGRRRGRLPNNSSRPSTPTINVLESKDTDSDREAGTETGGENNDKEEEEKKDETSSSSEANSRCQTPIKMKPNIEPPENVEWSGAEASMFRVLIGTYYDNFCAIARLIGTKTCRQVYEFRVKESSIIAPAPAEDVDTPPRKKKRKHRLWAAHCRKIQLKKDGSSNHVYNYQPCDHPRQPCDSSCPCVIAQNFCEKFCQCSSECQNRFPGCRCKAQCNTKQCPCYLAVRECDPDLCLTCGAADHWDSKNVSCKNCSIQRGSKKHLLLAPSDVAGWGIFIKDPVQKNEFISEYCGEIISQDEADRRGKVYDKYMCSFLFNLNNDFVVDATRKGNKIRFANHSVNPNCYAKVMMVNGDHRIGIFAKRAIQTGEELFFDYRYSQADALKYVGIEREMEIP
T1 sequence (O75530 whole entry partner, looked up): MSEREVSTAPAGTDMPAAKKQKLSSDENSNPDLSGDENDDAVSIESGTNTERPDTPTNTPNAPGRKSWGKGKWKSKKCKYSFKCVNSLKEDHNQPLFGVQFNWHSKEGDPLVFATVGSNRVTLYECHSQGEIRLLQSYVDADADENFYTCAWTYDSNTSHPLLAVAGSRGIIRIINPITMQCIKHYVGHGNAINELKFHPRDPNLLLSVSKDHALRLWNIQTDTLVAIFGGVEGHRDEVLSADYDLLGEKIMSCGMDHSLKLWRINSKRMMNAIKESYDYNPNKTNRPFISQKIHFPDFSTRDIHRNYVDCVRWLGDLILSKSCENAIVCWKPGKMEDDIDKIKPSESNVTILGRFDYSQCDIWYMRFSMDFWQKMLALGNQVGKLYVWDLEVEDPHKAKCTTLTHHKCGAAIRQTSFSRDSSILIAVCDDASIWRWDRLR
T1 sequence (Q15022 whole entry partner, looked up): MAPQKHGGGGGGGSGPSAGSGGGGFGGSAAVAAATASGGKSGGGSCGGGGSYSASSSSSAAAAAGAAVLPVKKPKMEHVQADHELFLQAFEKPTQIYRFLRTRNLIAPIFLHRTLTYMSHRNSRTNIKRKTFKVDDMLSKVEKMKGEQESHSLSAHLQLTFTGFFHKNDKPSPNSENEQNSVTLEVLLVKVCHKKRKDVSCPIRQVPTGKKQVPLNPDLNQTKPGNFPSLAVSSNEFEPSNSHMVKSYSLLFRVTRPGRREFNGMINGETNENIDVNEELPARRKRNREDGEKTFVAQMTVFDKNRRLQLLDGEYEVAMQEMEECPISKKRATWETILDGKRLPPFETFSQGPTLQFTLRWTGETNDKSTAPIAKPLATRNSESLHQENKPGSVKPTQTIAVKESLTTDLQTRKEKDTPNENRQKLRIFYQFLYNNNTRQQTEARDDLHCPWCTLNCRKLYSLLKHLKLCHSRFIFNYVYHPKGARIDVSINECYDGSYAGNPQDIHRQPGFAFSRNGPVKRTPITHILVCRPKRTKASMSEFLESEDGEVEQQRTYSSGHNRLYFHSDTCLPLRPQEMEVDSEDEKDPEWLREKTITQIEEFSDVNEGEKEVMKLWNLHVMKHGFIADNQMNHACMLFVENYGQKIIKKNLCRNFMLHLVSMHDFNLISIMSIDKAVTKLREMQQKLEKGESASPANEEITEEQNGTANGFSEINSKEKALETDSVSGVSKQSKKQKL
T1 sequence (Q09028 whole entry partner, looked up): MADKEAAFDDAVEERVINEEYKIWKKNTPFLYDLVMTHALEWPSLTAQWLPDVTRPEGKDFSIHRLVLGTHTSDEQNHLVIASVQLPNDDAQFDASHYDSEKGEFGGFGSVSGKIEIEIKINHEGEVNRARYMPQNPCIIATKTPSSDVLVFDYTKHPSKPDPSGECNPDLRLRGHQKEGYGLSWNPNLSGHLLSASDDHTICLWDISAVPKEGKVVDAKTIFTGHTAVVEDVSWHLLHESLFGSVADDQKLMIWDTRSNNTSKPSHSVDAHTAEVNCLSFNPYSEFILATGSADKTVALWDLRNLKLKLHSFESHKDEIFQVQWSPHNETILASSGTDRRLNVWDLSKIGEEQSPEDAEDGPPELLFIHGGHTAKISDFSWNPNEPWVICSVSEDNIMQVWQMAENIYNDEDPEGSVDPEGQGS
Chain of EZH2 Mutant Y641N (Q15910 whole entry Y641N, looked up): as the sequence (Q15910 whole entry, looked up) above, with Y641N counted along it
Chain of EZH2 Mutant Y641N (O75530 whole entry partner, looked up): as the sequence (O75530 whole entry partner, looked up) above
Chain of EZH2 Mutant Y641N (Q15022 whole entry partner, looked up): as the sequence (Q15022 whole entry partner, looked up) above
Chain of EZH2 Mutant Y641N (Q09028 whole entry partner, looked up): as the sequence (Q09028 whole entry partner, looked up) above

As for `Cc1cc(C)c(CN2CCc3c(Cl)cc(C(C)CO)c(Cl)c3C2=O)c(=O)[nH]1` (racemic) [Example 17], the IC50 (as a rule, the concentration at which inhibition is half-maximal) on WT EZH2 [1] came out at 0.035 µM; on EZH2 Mutant Y641N, 0.125 µM.

In the case of `CCC(CO)c1cc(Cl)c2c(c1Cl)C(=O)N(Cc1c(C)cc(C)[nH]c1=O)CC2` (racemic) [Example 20], the IC50 at WT EZH2 [1] was 0.011 µM; on EZH2 Mutant Y641N, 0.053 µM.

Turning to `Cc1cc(C)c(CN2CCc3c(Cl)cc(C(C)CN(C)CCO)c(Cl)c3C2=O)c(=O)[nH]1` (racemic) [Example 21], the pIC50 (in general, the IC50 on a negative log10 scale, so that one unit is a factor of ten) is 7.82 at WT EZH2 [1] and 6.96 at EZH2 Mutant Y641N.

On to `Cc1cc(C)c(CN2CCc3c(Cl)cc(C(C)C4CCN(C(=O)CO)CC4)c(Cl)c3C2=O)c(=O)[nH]1` (racemic) [Example 24], for which the figures for the pIC50 on WT EZH2 [1] and on EZH2 Mutant Y641N were 8.40 and 8.10, respectively.

`CCC(O)c1cc(Cl)c2c(c1Cl)C(=O)N(Cc1c(C)cc(C)[nH]c1=O)CC2` (racemic) [Example 25]: the concentration for half-maximal inhibition (IC50) turned out to be 0.084 µM at WT EZH2 [1] and 0.693 µM at EZH2 Mutant Y641N.

Turning to `Cc1cc(C)c(CN2CCc3c(Cl)cc(C(CO)C4CCOCC4)c(Cl)c3C2=O)c(=O)[nH]1` (racemic) [Example 31], the IC50 is 0.004 µM against WT EZH2 [1] and 0.006 µM at EZH2 Mutant Y641N.

Compound `Cc1cc(C)c(CN2CCc3c(Cl)cc([C@@H](CO)[C@H]4CCOC4)c(Cl)c3C2=O)c(=O)[nH]1` (single isomer, unassigned) [Example 3, 5,8-dichloro-2-[(4,6-dimethyl-2-oxo-1,2-dihydropyridin-3-yl)methyl]-7-{(1S*)-2-hydroxy-1-[(3R*)-tetrahydrofuran-3-yl]ethyl}-3,4-dihydroisoquinolin-1(2H)-one] had an IC50 on WT EZH2 [1] of 0.066 µM.

Consider `Cc1cc(C)c(CN2CCc3c(Cl)cc(C(CO)N4CC[C@@H](F)C4)c(Cl)c3C2=O)c(=O)[nH]1` (stereo partly drawn) [Example 5, 5,8-dichloro-2-[(4,6-dimethyl-2-oxo-1,2-dihydropyridin-3-yl)methyl]-7-{1-[(3R)-3-fluoropyrrolidin-1-yl]-2-hydroxyethyl}-3,4-dihydroisoquinolin-1(2H)-one], for which the pKi (usually −log10 of the Ki, conventionally taken in molar units) on WT EZH2 [2] was 7.48. The pIC50 at EZH2 Mutant Y641N was 6.72.

On to `Cc1cc(C)c(CN2CCc3c(Cl)cc([C@H](CO)[C@@H]4CCCO4)c(Cl)c3C2=O)c(=O)[nH]1` [Example 12, 5,8-dichloro-2-[(4,6-dimethyl-2-oxo-1,2-dihydropyridin-3-yl)methyl]-7-{(1R)-2-hydroxy-1-[(2S)-tetrahydrofuran-2-yl]ethyl}-3,4-dihydroisoquinolin-1(2H)-one], for which, at WT EZH2 [2], the pKi was 8.40. Besides, the pIC50 on EZH2 Mutant Y641N was 7.80.

Regarding `Cc1cc(C)c(CN2CCc3c(Cl)cc([C@H](CO)[C@H]4CCCO4)c(Cl)c3C2=O)c(=O)[nH]1` [Example 13, 5,8-dichloro-2-[(4,6-dimethyl-2-oxo-1,2-dihydropyridin-3-yl)methyl]-7-{(1R)-2-hydroxy-1-[(2R)-tetrahydrofuran-2-yl]ethyl}-3,4-dihydroisoquinolin-1(2H)-one], the pKi on WT EZH2 [2] is 8.52. The pIC50 at EZH2 Mutant Y641N was 7.74.

As to `Cc1cc(C)c(CN2CCc3c(Cl)cc([C@@H](CO)[C@H]4CCCO4)c(Cl)c3C2=O)c(=O)[nH]1` [Example 45], the negative logarithm of the Ki (pKi) on WT EZH2 [2] was 6.99. For the same compound, the pIC50 on EZH2 Mutant Y641N was 6.46.

As for `Cc1cc(C)c(CN2CCc3c(Cl)cc([C@@H](CO)[C@@H]4CCCO4)c(Cl)c3C2=O)c(=O)[nH]1` [Example 46], the pKi at WT EZH2 [2] is 6.92. For the same compound, the negative-log IC50 (pIC50) on EZH2 Mutant Y641N was 6.37.

`Cc1cc(C)c(CN2CCc3c(Cl)cc(C(CO)N4CC[C@H](F)C4)c(Cl)c3C2=O)c(=O)[nH]1` (stereo partly shown) [Example 58]: the pKi on WT EZH2 [2] was 7.24. Also, the negative-log IC50 (pIC50) at EZH2 Mutant Y641N was 6.29.

Regarding `CC(=C1CNC1)c1cc(Cl)c2c(c1Cl)C(=O)N(Cc1c(C)cc(C)[nH]c1=O)CC2` [Example 74, 7-(1-(azetidin-3-ylidene)ethyl)-5,8-dichloro-2-((4,6-dimethyl-2-oxo-1,2-dihydropyridin-3-yl)methyl)-3,4-dihydroisoquinolin-1(2H)-one], the pKi on WT EZH2 [2] was 8.30. On EZH2 Mutant Y641N, the pIC50 is 7.29.

Consider `CC(=C1CN(C(=O)CO)C1)c1cc(Cl)c2c(c1Cl)C(=O)N(Cc1c(C)cc(C)[nH]c1=O)CC2` [Example 75, 5,8-dichloro-2-[(4,6-dimethyl-2-oxo-1,2-dihydropyridin-3-yl)methyl]-7-{1-[1-(hydroxyacetyl)azetidin-3-ylidene]ethyl}-3,4-dihydroisoquinolin-1(2H)-one], for which, on WT EZH2 [2], the pKi is 8.70. Besides, the pIC50 at EZH2 Mutant Y641N is 7.70.

`CC(=O)N1CC(=C(C)c2cc(Cl)c3c(c2Cl)C(=O)N(Cc2c(C)cc(C)[nH]c2=O)CC3)C1` [Example 76]: at WT EZH2 [2], the pKi was 8.30. Besides, at EZH2 Mutant Y641N, the pIC50 is 7.37.

Turning to `CC(=C1CN(S(C)(=O)=O)C1)c1cc(C)c2c(c1Cl)C(=O)N(Cc1c(C)cc(C)[nH]c1=O)CC2` [Example 77], the negative-log Ki (pKi) on WT EZH2 [2] is 7.66. Further, the pIC50 at EZH2 Mutant Y641N is 6.88.

As to `COc1cc(C)[nH]c(=O)c1CN1CCc2c(C)cc(C(C)=C3CN(S(C)(=O)=O)C3)c(Cl)c2C1=O` [Example 78], at WT EZH2 [2], the pKi was 8.40. Moreover, the pIC50 at EZH2 Mutant Y641N was 7.40.

Regarding `Cc1cc(C)c(CN2CCc3c(Cl)cc(C(F)=C4CN(C(=O)CO)C4)c(Cl)c3C2=O)c(=O)[nH]1` [Example 79], at WT EZH2 [2], the pKi is 7.77. Further, the pIC50 on EZH2 Mutant Y641N is 6.88.

On to `CC(=C1CCNCC1)c1cc(Cl)c2c(c1Cl)C(=O)N(Cc1c(C)cc(C)[nH]c1=O)CC2` [Example 80], for which the pKi at WT EZH2 [2] is 9.00. In addition, at EZH2 Mutant Y641N, the pIC50 was 8.15.

With `COc1cc(C)[nH]c(=O)c1CN1CCc2c(Cl)cc([C@H](OC)C3COC3)c(Cl)c2C1=O` [Example 81, 5,8-dichloro-2-[(4-methoxy-6-methyl-2-oxo-1,2-dihydropyridin-3-yl)methyl]-7-[(R)-methoxy(oxetan-3-yl)methyl]-3,4-dihydroisoquinolin-1(2H)-one], at WT EZH2 [2], the pKi was 9.70. In addition, the pIC50 on EZH2 Mutant Y641N is 8.52.

As to `COc1cc(C)[nH]c(=O)c1CN1CCc2c(Cl)cc([C@@H](OC)C3COC3)c(Cl)c2C1=O` [Example 82, 5,8-dichloro-2-[(4-methoxy-6-methyl-2-oxo-1,2-dihydropyridin-3-yl)methyl]-7-[(S)-methoxy(oxetan-3-yl)methyl]-3,4-dihydroisoquinolin-1(2H)-one], the pKi on WT EZH2 [2] is 8.22. The pIC50 at EZH2 Mutant Y641N was 6.88.

In the case of `COc1cc(C)[nH]c(=O)c1CN1CCc2c(C)cc([C@H](OC)[C@@H]3CCOC3)c(Cl)c2C1=O` [Example 83, 8-chloro-2-[(4-methoxy-6-methyl-2-oxo-1,2-dihydropyridin-3-yl)methyl]-7-{(R)-methoxy[(3R)-tetrahydrofuran-3-yl]methyl}-5-methyl-3,4-dihydroisoquinolin-1(2H)-one], the pKi on WT EZH2 [2] is 9.40. The pIC50 on EZH2 Mutant Y641N was 8.40.

Take `COc1cc(C)[nH]c(=O)c1CN1CCc2c(C)cc([C@@H](OC)[C@H]3CCOC3)c(Cl)c2C1=O` [Example 86, 8-chloro-2-[(4-methoxy-6-methyl-2-oxo-1,2-dihydropyridin-3-yl)methyl]-7-{(S)-methoxy[(3S)-tetrahydrofuran-3-yl]methyl}-5-methyl-3,4-dihydroisoquinolin-1(2H)-one]: the pKi at WT EZH2 [2] was 7.21. Besides, the pIC50 at EZH2 Mutant Y641N was 6.20.

For the compound `COC(c1cc(Cl)c2c(c1Cl)C(=O)N(Cc1c(C)cc(C)[nH]c1=O)CC2)C(C)O` (stereo not shown) [Example 102], on WT EZH2 [2], the pKi was 7.74. Moreover, at EZH2 Mutant Y641N, the pIC50 is 6.75.

For the compound `COc1cc(C)[nH]c(=O)c1CN1CCc2c(Cl)cc([C@H](CO)[C@H]3CCCO3)c(Cl)c2C1=O` [Example 105], on WT EZH2 [2], the pKi was 9.10. Moreover, at EZH2 Mutant Y641N, the pIC50 was 7.89.

For `COc1cc(C)[nH]c(=O)c1CN1CCc2c(Cl)cc([C@H](CO)[C@@H]3CCCO3)c(Cl)c2C1=O` [Example 106], on WT EZH2 [2], the pKi was 9.22. The pIC50 at EZH2 Mutant Y641N was 8.10.

For `COC(c1cc(Cl)c2c(c1Cl)C(=O)N(Cc1c(C)cc(C)[nH]c1=O)CC2)C1CCN(C(=O)CO)C1` (stereo not shown) [Example 113], the pKi on WT EZH2 [2] was 9.10. Further, at EZH2 Mutant Y641N, the pIC50 was 8.30.
